Peptide text beside a SMILES is read from it.
Experiments:
Ragulator-Rag complex = assay: Co-immunoprecipitation of Ragulator, Rag GTPases and mTOR/Raptor in HEK293T cells; format: cell-based; conditions: 100 μM GPN 1 h
Method: (A) Analysis of mTOR activity in TSC2-deleted (TSC2−/−) and wildtype (TSC2WT) HeLa cells treated with 100 μM GPN in full medium (Full) or starved in EBSS for 1 h. mTOR activity was monitored by immunoblotting analysis of S6K1 (T389) phosphorylation (phosphorylated S6K (p-T389) relative to total S6K). Ctrl, control (untreated cells). (B) Co-immunoprecipitation analysis of changes in interactions between Ragulator and Rag GTPases following treatment with GPN. HEK293T cells stably expressing FLAG-metap2 (control) or FLAG-p14 were treated with 100 μM GPN in full medium for 1 h. Cell lysates were immunoprecipitated (IP) with anti-FLAG antibody and immunoblotted for endogenous RagA or RagC. […] (D) Analysis of mTOR activity in HEK293T cells or HEK293T cells stably expressing constitutively active RagB GTPase (RagBQ99L) treated with 100 μM GPN in full medium or starved in EBSS for 1 h. mTOR activity was monitored as in A. Data, means±SEM, (n=3), † not significant, **p<0.01, ANOVA. […] (F) Quantification by HC of overlaps between mTOR and LAMP2 (representative images shown in FIG. S2C) in HEK293T cells and HEK293T cells stably expressing constitutively active RagB GTPase (RagBQ99L) treated with 100 μM GPN in full medium for 1 h. Data, means±SEM, n≥3 independent experiments (500 primary objects counted per well; ≥5 wells/sample per each experiment); † p≥0.05, *p<0.05, ANOVA. […]

[1] = system: bone marrow-derived macrophages (BMMs); assay: LysoTracker Red DND-99 staining in bone marrow-derived macrophages (BMMs); format: cell-based, murine; conditions: GPN 400 μM or LLOMe, 1 h

Compound: NCC(=O)N[C@@H](Cc1ccccc1)C(=O)Nc1ccc2ccccc2c1 [GPN, glycyl-L-phenylalanine 2-naphththylamide] (HELM PEPTIDE1{G.F.[c1ccc2cc(N[*:1])ccc2c1]}$$$$V2.0)
- interactions between Ragulator (p14 and p18) and RagA/RagC in co-IPs (Ragulator-Rag complex): enhanced interactions
- mTOR and Raptor levels in complexes with RagB or RagA (Ragulator-Rag complex): diminished mTOR and Raptor levels
- LysoTracker Red DND-99 staining in BMMs (lysosomal damage) [1]: reduced LysoTracker Red DND-99 staining

Source: patent US20210069295A1, “GALECTINS CONTROL MTOR IN RESPONSE TO ENDOMEMBRANE DAMAGE AND PROVIDE A MECHANISM AND TARGET FOR THE TREATMENT OF AUTOPHAGY-RELATED DISEASES” (STC. UNM, priority 2017, published 2021)
